Experimental data reported in paper PMC12040169 (PLOS Biology, 2025).

Test: in vitro
Conditions: human, hela cells, % viability

In order of falling viability at 28.5 h, 10 µM:
1. COc1ccc(-c2nccnc2N2CCN(C)CC2)cc1 [CBK038012]  113%
2. COc1ccc(S(=O)(=O)N(C)CC(=O)Nc2ccc(C(N)=O)cc2)cc1Cl [CBK267891]  109%
3. COC(=O)c1ccccc1NC(=O)NCc1cc(C)n(C)n1 [CBK266887C]  109%
4. CC(=O)N[C@H]1C[C@@H](Cc2cc(CN3CCN(c4ccccc4)CC3)on2)C1(C)C [CBK289241]  109%
5. Cc1ccc(S(=O)(=O)N2C[C@H]3C[C@H](NC(=O)C4CC4C)[C@H]3C2)cc1 (stereo partly shown) [CBK285318]  108%
6. Nc1nc2c(nc(Br)n2[C@H]2C[C@@H](O)[C@@H](CO)O2)c(=O)[nH]1 [CBK201333]  108%
7. CC(=O)Nc1ccc2nc(Nc3nc4c(F)cc(F)cc4s3)sc2c1 [CBK287489]  107%
8. CN(C)C(=O)c1ccc(Cn2ccnc(N3CCC(Sc4ccccc4)CC3)c2=O)cc1 [CBK153651]  107%
9. O=[N+]([O-])c1ccc(/C=N/C23CN4CN(CN(C4)C2)C3)s1 [CBK261752]  105%
10. CC1(C)COC(CCN2CCN(c3ccc(F)cc3)CC2)c2ccccc21 (stereo not shown) [CBK024080C]  105%
11. COC(=O)[C@@H]1Cc2ncn(C)c2CN1S(=O)(=O)c1cccs1 [CBK288992]  104%
12. Cc1cc(NC(=O)NC2CC3(CCN(C)CC3)Oc3ccccc32)no1 (stereo not shown) [CBK305059]  104%
13. COc1cccc(CNc2nccnc2-c2ccc(S(C)(=O)=O)cc2)c1OC [CBK037452]  104%
14. COc1cccc(/C=C\c2onc(C)c2[N+](=O)[O-])c1OCC(=O)O [CBK269063]  104%
15. Cc1cc(Cl)ccc1NC(=O)COCC(=O)O [CBK057723]  104%
16. COC(=O)c1cc(S(N)(=O)=O)c(C)o1 [CBK113185]  104%
17. Cn1c(=O)n(C)c2cc(NC(=O)CN(c3ccccc3)S(C)(=O)=O)ccc21 [CBK270094]  103%
18. COc1cccc2sc(N(Cc3cccnc3)C(=O)c3ccc(S(=O)(=O)N(C)C)cc3)nc12 [CBK294420]  103%
19. CC(C)(C)C1=CC2=NC3(CCC3)C3C[C@](O)(COCc4ccccc4)[C@@H](O)[C@@H]3N2O1 (stereo partly shown) [CBK303259]  102%
20. Cc1cc(C)c(S(=O)(=O)Nc2nnc(C(C)C)s2)c(C)c1 [CBK045516]  102%
21. CCn1c(=O)n(CC(=O)N2C(C)CCCC2C)c2cccnc21 (stereo not shown) [CBK283825]  102%
22. C[N+]1([O-])CCN(c2nccn(CCOc3cc(F)c(F)cc3F)c2=O)CC1 [CBK081593]  101%
23. Cc1cc(NC(=O)CN(C)C(=O)c2ccc(-n3cc(Br)cn3)cc2)no1 [CBK305575]  100%
24. Cc1cc(C)n(CC(O)CN(Cc2ccco2)Cc2cccs2)n1 (stereo not shown) [CBK282979]  100%
25. CC(C)C(=O)N1CCN(c2ccccc2NC(=O)c2ccc(N3CCCCC3)c([N+](=O)[O-])c2)CC1 [CBK267609]  100%
26. N#Cc1ccc(Oc2ccc(C(=O)C(=O)c3ccccc3)cc2)cc1C#N [CBK260959]  100%
27. O=C(C1CC1)N1CCCc2cc(C(O)CN3CCCCC3)ccc21 (stereo not shown) [CBK282135]  99.5%
28. O=C(CCCN1C(=O)/C(=C\c2cccs2)SC1=S)Nc1cc(Cl)ccc1O [CBK263673]  99.5%
29. CCN(CC)C(=O)C1CCCN(C(=O)NCCOC)C1 (stereo not shown) [CBK156129]  99.2%
30. Cc1cc(N2CCOCC2)nc(N)n1 [CBK012710]  99.1%
31. CC(=O)Nc1nc2ccc(S(=O)(=O)N3CCCC3)cc2s1 [CBK287604]  98.8%
32. Oc1cccc(-c2nccnc2N[C@@H]2CCN(Cc3ccccc3)C2)c1 [CBK037017]  98.2%
33. CC1=NN(c2ccccc2)C(=O)C1C(=O)c1ccc(Br)cc1 (stereo not shown) [CBK067771]  98.1%
34. CC(c1ccccc1)N1Cc2cccc(C(=O)O)c2C1=O (stereo not shown) [CBK291252]  97.6%
35. O=C1CC(c2ccccc2O)CC2=C1C=Nc1ccccc1N2 (stereo not shown) [CBK270287]  97.4%
36. CN(CC(=O)Nc1nnc[nH]1)S(=O)(=O)c1cc(Cl)ccc1Cl [CBK267433]  97%
37. CSc1ncc(Cl)c(C(=O)Nc2sc3c(c2C(=O)NCc2ccco2)CCCC3)n1 [CBK268971]  96.6%
38. CCOC(=O)N1CCC(NCC(C)(C)CN(C)C)CC1 [CBK028516]  96.2%
39. COc1ncc(-c2nccnc2NCc2cccs2)c(OC)n1 [CBK037318]  95.9%
40. O=C(Nc1cccc(O)c1)c1ccc2c(c1)C(=O)N(Cc1ccco1)C2=O [CBK268640]  95.6%
41. O=C(Nc1ccncc1)c1cnn(-c2ccc(Cl)cc2)c1C(F)(F)F [CBK107441]  95.5%
42. Cc1ccc(C(=O)NC(=S)Nc2ccc(C(=O)O)c(Cl)c2)cc1Cl [CBK265068]  95%
43. O=C(O)C1CCCCN1Cc1ccccc1 (stereo not shown) [CBK261687]  94.9%
44. Cc1ccc2c(c1)oc(=O)n2CCNC(=O)CC1c2ccccc2Oc2ccccc21 [CBK286194]  94.8%
45. Cc1cc(NC(=O)C(=O)NCCCN2CCOCC2)ccc1Br [CBK268046]  94.7%
46. CC(C)C(=O)N1CC2(CCN(Cc3ccc(Cl)c(Cl)c3)CC2)c2ccccc21 [CBK126715]  94.7%
47. COc1cc(NC(=O)NCCc2cccs2)cc(OC)c1OC [CBK043347]  94.6%
48. CC(=O)Nc1ccc(CN(C)c2c(C)nc3c(OCc4ccc(C(F)(F)F)cc4)cccn23)cc1 [CBK147380]  94.5%
49. CCN(CC)CC1CCCCC1=O (stereo not shown) [CBK023965G]  93.9%
50. Cc1ccc(C23CC4CC(CC(NC(=O)NC(Cc5ccccc5)C(=O)O)(C4)C2)C3)cc1 (stereo not shown) [CBK267423]  93.7%
51. Cc1cc(C2CCCCCN2S(=O)(=O)c2ccc3[nH]c(=O)[nH]c(=O)c3c2)on1 (stereo not shown) [CBK286405]  93.6%
52. CCC1(CC)OC(N[C@@H](C)c2ccc(Cl)cc2)=NC1=O [CBK126666]  93.2%
53. COc1cc(NC(=O)c2nc[nH]n2)c(OC)cc1Cl [CBK288170]  93%
54. O=C(NC[C@H]1O[C@@H](CC(=O)N2CCN(c3ccc(F)cc3)CC2)[C@H](O)[C@@H]1O)C1CC1 [CBK288921]  92.7%
55. CC1CN(CCCCNCc2cn(C)nc2-c2cccnc2)CC(C)O1 (stereo not shown) [CBK304453]  92.6%
56. Cc1ccc(C(=O)Nc2c(C(=O)Nc3cccnc3)cnn2-c2ccccc2)cc1 [CBK263056]  92.4%
57. O=C(c1cc(-c2cccs2)[nH]n1)N1CCCCCC1 [CBK288108]  92.1%
58. O=C(c1cc(-c2ccccn2)n[nH]1)N1CCC(c2ccccc2)C1 (stereo not shown) [CBK281852]  91.9%
59. COc1ccc(C(=O)/C=C/c2ccc(N3N=C(c4ccccc4)CC3c3ccccc3)cc2)cc1 (stereo not shown) [CBK262274]  91.7%
60. Cc1cccc(-c2ncc(NC(=O)CC3OC(=O)c4ccccc43)nc2-c2ccc(N)cc2)c1 (stereo not shown) [CBK036749]  91.5%
61. CC(NCC(=O)NC1(C#N)CCCCC1)C(C)n1cccn1 (stereo not shown) [CBK305129]  91.4%
62. O=C(NCC1COc2ccccc2O1)N1CCCC(CO)C1 (stereo not shown) [CBK156030]  91.3%
63. CC(=O)Nc1ccc(-c2nc3cc(-c4nc5ccc(NC(C)=O)cc5[nH]4)ccc3[nH]2)cc1 [CBK261165]  91.2%
64. CC1(C)Cc2nc3nc(SCC(=O)c4ccc(Br)cc4)n(-c4ccccc4)c(=O)c3cc2CO1 [CBK263310]  91%
65. NC(=O)C1(N2CCCCC2)CCN(C(=S)Nc2ccc(S(N)(=O)=O)cc2)CC1 [CBK265900]  90.5%
66. CCc1nn(CC(=O)NCC2CC2)c(=O)c2cc3sccc3n12 [CBK284055]  90.5%
67. O=C(Oc1cccc(/C=N/NC(=O)c2ccccn2)c1)c1cccc(Br)c1 [CBK262115]  90.5%
68. CC1CCN(Cc2ccc(-c3nnn(CC(=O)NCc4ccc(NS(C)(=O)=O)cc4)n3)cc2)CC1 [CBK144588C]  90.3%
69. COc1ccc2c(-n3cncn3)ccnc2c1 [CBK025957]  90.2%
70. O=C(O)C[C@@H]1CCN(C(=O)C2CCCCC2)C[C@@H]1CCN1CCCCC1 [CBK288781]  90.1%
71. CN1CCN(NC(=O)C2C3C=CC(C3)C2C(=O)O)CC1 (stereo not shown) [CBK286915]  90.1%
72. O=C(O)c1cccc(N2C(=O)CC(n3cnc4ccccc43)C2=O)c1 (stereo not shown) [CBK291145]  89.8%
73. O=C(CC1CCCCC1)N1CCC(n2nc(C3CC3)ccc2=O)CC1 [CBK284241]  88.6%
74. Cc1ccc(-c2nnc(NCc3cnn(C)c3C)o2)c(C)c1 [CBK306166]  88.2%
75. CCCN1CCC(CNC(=O)Cn2ccc3ccc(F)cc32)CC1 [CBK282573]  88%
76. OCCNc1nc(Nc2ccc(Br)cc2)nc2ccccc12 [CBK266724C]  87.7%
77. O=C(c1ccccn1)N1C2CCC1CC(O)(c1ccco1)C2 (stereo not shown) [CBK284034]  87%
78. COC(=O)c1ccc(NC(=O)N2CCCCC2CCn2ccnc2)cc1 (stereo not shown) [CBK307195]  86.8%
79. O=C(Nc1cccc(-c2nnco2)c1)C1CCCCC1 [CBK296662]  86.2%
80. CN(CC(=O)Nc1ccc(N(C)C)cc1)Cc1ccc(F)cc1 [CBK295188]  86.1%
81. c1coc(CNc2nccnc2-c2cccs2)c1 [CBK036618]  85.5%
82. O=C(NCCc1ccc(O)cc1)C1(c2ccccc2)CCCC1 [CBK149535]  84.9%
83. CC(C)Nc1nc(C#N)nc(NC(C)C)n1 [CBK027421]  84.7%
84. N=C(N)NC(=N)Nc1ccc2c(c1)OCCO2 [CBK021572C]  84.3%
85. Cc1ccc(C2(CN3CCC(NC(=O)C4CC4)CC3)CC2)cc1 [CBK285359]  83.9%
86. Clc1cncc(OCCc2c[nH]c3ccccc23)n1 [CBK176027]  65.2%

Same assay, conditions: human, hela cells, % viability, bulk resorufin, single well

In order of rising viability at 28.5 h, 10 µM:
1. Cc1cc(Cl)c(OC(=O)NC2CCCCC2)cc1C [CBK022948]  90.1%
2. C=CCN1C(=O)/C(=N\Nc2ccc(S(=O)(=O)O)cc2)C(=O)NC1=S [CBK261440]  92%
